# Laboratory results as given in the supplement of paper PMC10307832.
# Experiments:
# Test in all cases: relative viability (nuclei count vs DMSO), 5 days (fraction); higher = more cells survive
# Wnt-C59 + Bortezomib = compound: CC1=NC=CC(=C1)C2=CC=C(C=C2)CC(=O)NC3=CC=C(C=C3)C4=CN=CC=C4 [Wnt-C59] + CC(C)C[C@H](NC(=O)[C@H](Cc1ccccc1)NC(=O)c1cnccn1)B(O)O [Bortezomib] (partner 0.002 µM)
# Procedure, shortened: (§1)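 After 5 days of treatment, lung cancer cells in 1536-well plates were fixed and stained in a single step (final 0.05% Triton X-100, 1% formaldehyde, 1 ug/ml Hoechst) and their nuclei counted on 4× images. Treatment had been applied by pin tool the day after seeding as one drug alone or as a fixed anchor-drug dose with five library-drug doses (not always all listed) in √10 steps. Relative viability is the nuclei count of treated wells divided by that of vehicle wells, and values are medians of duplicate plates.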
# Wnt-C59 + AZD7762 = compound: CC1=NC=CC(=C1)C2=CC=C(C=C2)CC(=O)NC3=CC=C(C=C3)C4=CN=CC=C4 [Wnt-C59] + NC(=O)Nc1cc(-c2cccc(F)c2)sc1C(=O)N[C@H]1CCCNC1 [AZD7762] (partner 0.2 µM)
# Procedure, shortened: as §1
# Lapatinib + Crizotinib = compound: CS(=O)(=O)CCNCc1ccc(-c2ccc3ncnc(Nc4ccc(OCc5cccc(F)c5)c(Cl)c4)c3c2)o1 [Lapatinib] + C[C@@H](Oc1cc(-c2cnn(C3CCNCC3)c2)cnc1N)c1c(Cl)ccc(F)c1Cl [Crizotinib] (partner 1 µM)
# Procedure, shortened: as §1
# Lapatinib + Olaparib = compound: CS(=O)(=O)CCNCc1ccc(-c2ccc3ncnc(Nc4ccc(OCc5cccc(F)c5)c(Cl)c4)c3c2)o1 [Lapatinib] + O=C(c1cc(Cc2n[nH]c(=O)c3ccccc23)ccc1F)N1CCN(C(=O)C2CC2)CC1 [Olaparib] (partner 8 µM)
# Procedure, shortened: as §1
Cell Line,relative viability (Wnt-C59 + Bortezomib; first compound 0.001 µM),relative viability (Wnt-C59 + Bortezomib; first compound 0.01 µM),relative viability (Wnt-C59 + Bortezomib; first compound 0.03162 µM),relative viability (Wnt-C59 + Bortezomib; first compound 0.1 µM),relative viability (Wnt-C59 + AZD7762; first compound 0.001 µM),relative viability (Wnt-C59 + AZD7762; first compound 0.01 µM),relative viability (Wnt-C59 + AZD7762; first compound 0.03162 µM),relative viability (Wnt-C59 + AZD7762; first compound 0.1 µM),relative viability (Lapatinib + Crizotinib; first compound 0.02 µM),relative viability (Lapatinib + Crizotinib; first compound 0.06325 µM),relative viability (Lapatinib + Crizotinib; first compound 0.2 µM),relative viability (Lapatinib + Crizotinib; first compound 0.6325 µM),relative viability (Lapatinib + Crizotinib; first compound 2 µM),relative viability (Lapatinib + Olaparib; first compound 0.02 µM),relative viability (Lapatinib + Olaparib; first compound 0.06325 µM),relative viability (Lapatinib + Olaparib; first compound 0.2 µM),relative viability (Lapatinib + Olaparib; first compound 0.6325 µM),relative viability (Lapatinib + Olaparib; first compound 2 µM)
NCI-H1703,0.417,0.271,0.331,0.42,0.158,0.107,0.135,0.129,0.696,0.873,0.774,0.879,0.63,0.312,0.489,0.392,0.595,0.383
EKVX,1,0.928,1.06,0.895,0.871,,0.689,0.651,0.868,0.68,0.89,0.647,0.214,,0.694,0.77,0.602,0.337
HCC-15,1.01,1.02,1.03,0.994,1.28,1.34,1.29,1.06,,0.786,0.808,0.835,0.704,,0.706,0.689,0.659,0.621
NCI-H1355,1.18,1.05,1.23,1.1,0.81,0.753,0.753,0.766,,0.854,1.02,1.02,0.606,0.719,0.594,0.699,0.688,0.439
NCI-H441,0.364,0.236,0.593,0.682,1.19,1.35,1.48,0.997,0.681,0.861,0.803,0.689,0.721,0.689,,0.48,0.486,0.559
NCI-H322M,1.25,1.25,1.23,1.12,0.575,0.577,0.511,0.536,0.823,0.649,0.912,0.857,0.735,0.756,0.711,0.836,0.818,0.763
NCI-H1993,1.14,1.12,1.21,1.2,0.965,0.665,1.05,0.769,0.854,,0.796,0.737,0.742,0.961,,0.901,0.965,0.661
LOU-NH91,0.492,0.583,0.465,0.53,0.765,0.67,0.778,0.761,0.697,0.626,0.599,0.547,0.534,0.921,0.748,0.836,0.696,0.617
201T,1.14,1.08,1.13,1.13,0.713,0.697,0.598,0.606,0.869,0.996,1.02,0.966,0.977,0.85,0.848,0.858,0.833,0.778
LXF-289,0.969,0.965,0.99,1.02,1.06,1.07,1.09,1.07,0.819,0.85,0.805,0.779,0.743,1.06,0.97,1.04,1.04,0.998
